A short description of data set [1]: Serum calcium concentration in mice treated with RANK antisense oligonucleotide, no PTH: dose response and delivery method (Table 11). The format is in vivo, mouse. On the procedure:
In accordance with the present invention, antisense inhibition of the RANKL receptor, RANK, was evaluated in the short-term model of bone resorption. Serum calcium concentration was measured in mice treated with RANK antisense oligonucleotides at different doses, delivered by subcutaneous mini-pumps or subcutaneous injection.
ISIS 181071 ([…], SEQ ID NO: 356) is an antisense oligonucleotide targeted to mouse RANK. […] All cytidine residues are 5-methylcytidines.
Female Swiss-Webster mice (5-8 wks old), fed a low-calcium diet were treated with ISIS 181071 (SEQ ID NO: 356) for 15 days. The dose of oligonucleotide was either 30 mg/kg, 20 mg/kg, 10 mg/kg, 3 mg/kg, or 0.1 mg/kg administered by daily subcutaneous injections for the first five days, followed by mini-pump infusion for the remaining 10 days, or the dose was 10 mg/kg or 30 mg/kg administered daily by subcutaneous injection for the entire 15 day period. No PTH was administered to the mice that received oligonucleotide. A group of control mice were treated with either saline, PTH alone (1 ug/100 g/6 hr) or calcitonin (400 ng) plus PTH (1 ug/100 g/6 hr). After […] (total PTH delivery of 3 ug/100 g), blood samples were taken from the tail of the mice and the serum calcium concentration was measured with the Sigma Diagnostics Calcium Kit (Sigma-Aldrich). […] Thus, increase in serum calcium concentration is due to the PTH treatment rather than the oligonucleotide treatment.

The nature of data set [2]: Serum calcium concentration after PTH infusion in mice treated with RANK antisense oligonucleotide: dosing schedule study (Table 14). The format is in vivo, mouse. How it is done:
In accordance with the present invention, various antisense oligonucleotide dosing schedules were tested for their ability to inhibit serum calcium concentration increase resulting from PTH infusion.
Female Swiss-Webster mice (5-8 wks old) were fed a low-calcium diet. The mice were dosed with the same total amount of ISIS 181071 (SEQ ID NO: 356) (450 mg/kg), however the frequency of the dosage was varied. The first group received daily injections for […]. The second group received daily injections of 30 mg/kg/day for 5 days; the remaining 300 mg/kg was divided into 12 injections over 24 days and were administered every other day. The third group received daily injections of 30 mg/kg/day for 5 days; the remaining 300 mg/kg was divided into 8 injections over 24 days and were administered every third day. The fourth group received daily injections of 30 mg/kg/day for 5 days; the remaining 300 mg/kg was divided into 6 injections over 24 days and were administered every fourth day. Each group contained eight mice. Treatment with oligonucleotides was followed with infusion of PTH by subcutaneously implanted mini-pumps at a dose of 1 ug/100 g/6 hr. A control group received saline or PTH alone (1 ug/100 g/6 hr). After 24 hours of PTH infusion (total PTH delivery of 4 ug/100 g), the mice were sacrificed and the serum calcium concentration was measured with the Sigma Diagnostics Calcium Kit (Sigma-Aldrich). The data are shown in Table 14 and are the average of eight mice per group.

A short description of data set [3]: Serum calcium concentration after RANK antisense oligonucleotide treatment and PTH infusion: dose response and delivery method (Table 12). The format is in vivo, mouse. On the procedure:
In accordance with the present invention, ISIS 181071 was evaluated for its ability to inhibit RANK expression and PTH-induced serum calcium concentration increase following 18 days of oligonucleotide treatment.
Female Swiss-Webster mice (5-8 wks old), fed a low-calcium diet, were treated for 18 days with ISIS 181071 (SEQ ID NO: 356) at different doses and through different delivery methods. The dose of oligonucleotide was either 30 mg/kg, 20 mg/kg, 10 mg/kg, 3 mg/kg, or 0.1 mg/kg administered by daily subcutaneous injections for the first five days, followed by mini-pump infusion for the remaining 13 days, or the dose was 10 mg/kg or 30 mg/kg administered daily by subcutaneous injection for the entire 18 day period. After 18 days of treatment with oligonucleotides, the mice were infused with PTH by subcutaneously implanted mini-pumps at a dose of 1 ug/100 g/6 hr. A group of control mice received saline, calcitonin (400 ng) plus PTH (1 ug/100 g/6 hr) or PTH alone (1 ug/100 g/6 hr). After 24 hours of PTH infusion (total PTH delivery of 4ug/100 g), the mice were sacrificed and measurements were made of serum calcium with the Sigma Diagnostics Calcium Kit (Sigma-Aldrich) and RANK mRNA expression in proximal tibia (as described in other examples herein). The results are shown in Table 12 are normalized to PTH treatment alone and are the average of four mice per group.

In a further data set the test system is RANKL mRNA. Put plainly: RANKL mRNA expression in primary mouse osteoblast cells after PTH treatment: time course (Table 7). The note with it: 10 nM PTH; for RANKL mRNA % control: primary osteoblast cells. It counts as cell-based. How it is done:
Primary mouse osteoblasts were prepared from calvaria of neonatal mice purchased from Charles River Laboratories. […] Cells were not passaged. Cells were seeded onto 6-well plates (Falcon-Primaria #353846) at a density of 50,000 cells/well for use in antisense oligonucleotide transfection.
In a further embodiment of this invention, the effect of PTH treatment on the expression of RANKL was determined in primary osteoblast cells isolated from mice skull caps. Primary osteoblastic cells were treated for 24 hours with either saline or the transfection reagent FuGENE 6 (Roche Applied Science, Indianapolis, Ind.). […] The RNA was then harvested and the expression levels of RANKL mRNA were measured by the methods described herein. The data are expressed as percent increase over untreated control cells.

Strand notation (5' to 3'): a small letter for the sugar, then the base; units joined by * are phosphorothioate-linked, units joined directly phosphodiester-linked; [ ] holds rarer units or linkages, { } end groups; capitals alone tell only the bases. e = 2'-O-(2-methoxyethyl) (MOE); [5mC] = 5-methylcytosine; d = 2'-deoxy (DNA)

In the case of “TCCTCGAGAGGTCTCCTTGC (antisense eT*e[5mC]*e[5mC]*eT*e[5mC]*dG*dA*dG*dA*dG*dG*dT*d[5mC]*dT*d[5mC]*e[5mC]*eT*eT*eG*e[5mC]) [ISIS 181071, 2′-MOE gapmer antisense oligonucleotide targeted to mouse RANK]”, the Serum calcium concentration was 9 mg/dL in data set [1] (0.1 mg/kg, injection 5 days then mini-pump infusion 10 days, no PTH); 9 mg/dL in data set [1] (3 mg/kg, injection 5 days then mini-pump infusion 10 days, no PTH); 9 mg/dL in data set [1] (10 mg/kg daily subcutaneous injection 15 days, no PTH); 9 mg/dL in data set [1] (10 mg/kg, injection 5 days then mini-pump infusion 10 days, no PTH); 9 mg/dL in data set [1] (20 mg/kg, injection 5 days then mini-pump infusion 10 days, no PTH); 8 mg/dL in data set [1] (30 mg/kg daily subcutaneous injection 15 days, no PTH). Besides, the Serum calcium concentration in data set [1] (30 mg/kg, injection 5 days then mini-pump infusion 10 days, no PTH) stood at 9 mg/dL; in data set [2] (total 450 mg/kg, 30 mg/kg/day 5 days then every fourth day (6 injections over 24 days), then 24 h PTH), 18 mg/dL; in data set [2] (total 450 mg/kg, 30 mg/kg/day 5 days then every other day (12 injections over 24 days), then 24 h PTH), 16 mg/dL; in data set [2] (total 450 mg/kg, 30 mg/kg/day 5 days then every third day (8 injections over 24 days), then 24 h PTH), 17 mg/dL; in data set [2] (total 450 mg/kg, daily injections for 2 weeks, then 24 h PTH), 16 mg/dL. For the same molecule, in data set [2] (mice, total 450 mg/kg, various dosing schedules, 24 hours PTH infusion), the “rise in serum calcium concentration in response to PTH infusion” value is “can similarly prevent the rise in serum calcium concentration”. Besides, the serum calcium in data set [3] (0.1 mg/kg, injection 5 days then infusion 13 days, then 24 h PTH) came out at 21 mg/dL; in data set [3] (3 mg/kg, injection 5 days then infusion 13 days, then 24 h PTH), 20 mg/dL; in data set [3] (10 mg/kg daily subcutaneous injection 18 days, then 24 h PTH), 18 mg/dL; in data set [3] (10 mg/kg, injection 5 days then infusion 13 days, then 24 h PTH), 18 mg/dL; in data set [3] (20 mg/kg, injection 5 days then infusion 13 days, then 24 h PTH), 18 mg/dL; in data set [3] (30 mg/kg daily subcutaneous injection 18 days, then 24 h PTH), 14 mg/dL. For the same molecule, the serum calcium in data set [3] (30 mg/kg, injection 5 days then infusion 13 days, then 24 h PTH) was 17 mg/dL.

B1: parathyroid hormone (peptide, UniProt P01270 32-115, looked up)
Parathyroid hormone: SVSEIQLMHNLGKHLNSMERVEWLRKKLQDVHNFVALGAPLAPRDAGSQRPRKKEDNVLVESHEKSLGEADKADVNVLTKAKSQ
notes: parathyroid hormone infused to induce bone resorption in the mouse model
As to B1, the Serum calcium concentration in data set [1] (control mice, no oligonucleotide, PTH 1 ug/100 g/6 hr, calcitonin 400 ng, after 16 hours) is on record as 9 mg/dL; in data set [2] (control group, PTH alone 1 ug/100 g/6 hr, 24 h) it was 21 mg/dL. Further, in data set [3] (control mice, no oligonucleotide, PTH 1 ug/100 g/6 hr 24 h, calcitonin 400 ng), the serum calcium turned out to be 20 mg/dL. The “RANKL mRNA % control” value with RANKL mRNA (0.5 hours, FuGENE 6 treatment) amounted to 185 % control; in the data set with RANKL mRNA (0.5 hours, saline treatment), 168 % control; with RANKL mRNA (1 hour, FuGENE 6 treatment), 750 % control; with RANKL mRNA (1 hour, saline treatment), 700 % control; in the data set with RANKL mRNA (2 hours, FuGENE 6 treatment), 1275 % control; in the data set with RANKL mRNA (2 hours, saline treatment), 908 % control. Further, the “RANKL mRNA % control” value came to 467 % control with RANKL mRNA (4 hours, FuGENE 6 treatment); 383 % control in the data set on RANKL mRNA (4 hours, saline treatment); 340 % control in the data set with RANKL mRNA (6 hours, FuGENE 6 treatment); 326 % control with RANKL mRNA (6 hours, saline treatment). The “RANKL mRNA expression in response to PTH” value with RANKL mRNA (primary mouse osteoblast cells, in the presence of saline or FuGENE 6) is given as “upregulated in response to PTH”.
